Data published in publication PMC9649653, “Biochemical and structural basis for differential inhibitor sensitivity of EGFR with distinct exon 19 mutations” (Nature Communications, 2022).
Where “and” joins values, the source holds several entries; their conditions need not be identical. Equal entries are not always repeated. Where two headings read alike, the source gives them in different places.

What was measured:
EGFR TKD ΔE746-T751InsA = target: T1, EGFR TKD ΔE746-T751InsA (Homo sapiens, UniProt P00533, DEL746-750/T751A); test: Michaelis-Menten kinetics (KM,ATP, KM,pept); type: biochemical
T1 construct: 6x His (N); made in house; host or cells: Spodoptera frugiperda Sf9 (baculovirus)
Experimental: (§1) Reactions were carried out in a 384-well assay plate format at 30 °C and initiated with the addition of AQpeptide after 5 min incubation of EGFR with ATP. Progress curves of phosphorylated peptide accumulation were monitored using a BioTek Synergy microplate reader with a fluorescence intensity module excitation and emission wavelength at 360 nm and 480 nm, respectively.
(§2) Initial velocities (νo) at different ATP concentrations were determined by inspecting progress curves during the steady state phase. The νo values were plotted against ATP concentration, and the curves fit to the Michaelis-Menten equation to estimate KM, ATP as well as Vmax using GraphPad Prism.

EGFR TKD ΔL747-A750InsP = target: T2, EGFR TKD ΔL747-A750InsP (Homo sapiens, UniProt P00533, A750P/DEL747-749); test: Michaelis-Menten kinetics (KM,ATP, KM,pept); type: biochemical
T2 construct: 6x His (N); made in house; host or cells: Spodoptera frugiperda Sf9 (baculovirus)

EGFR TKD ΔL747-E749 = EGFR TKD ΔL747-E749 (Homo sapiens, UniProt P00533, DEL747-749); test: Michaelis-Menten kinetics (KM,ATP)
Experimental: as §1, §2

EGFR TKD ΔE746-A750 = target: T3, EGFR TKD ΔE746-A750 (Homo sapiens, UniProt P00533, DEL746-750); test: Michaelis-Menten kinetics (KM,ATP, KM,pept); type: biochemical; details: read-out: Best fit KM,ATP; individual experiments (Fig. 3b data)
T3 construct: 6x His (N); made in house; host or cells: Spodoptera frugiperda Sf9 (baculovirus)
Experimental: as §1, §2

EGFR TKD ΔS752-I759 = target: T4, EGFR TKD ΔS752-I759 (Homo sapiens, UniProt P00533, DEL752-759); test: Michaelis-Menten kinetics (KM,ATP, KM,pept); type: biochemical
T4 construct: 6x His (N); made in house; host or cells: Spodoptera frugiperda Sf9 (baculovirus)

EGFR TKD L747P = target: T5, EGFR TKD L747P (Homo sapiens, UniProt P00533, L747P); test: Michaelis-Menten kinetics (KM,ATP, KM,pept); type: biochemical
T5 construct: 6x His (N); made in house; host or cells: Spodoptera frugiperda Sf9 (baculovirus)

EGFR TKD ΔL747-T751InsP = target: T6, EGFR TKD ΔL747-T751InsP (Homo sapiens, UniProt P00533, DEL747-750/T751P); test: Michaelis-Menten kinetics (KM,ATP, KM,pept); type: biochemical; details: read-out: Best fit KM,ATP; individual experiments (Fig. 3b data)
T6 construct: 6x His (N); made in house; host or cells: Spodoptera frugiperda Sf9 (baculovirus)
Experimental: as §1, §2

EGFR TKD L858R/T790M = target: T7, EGFR TKD L858R/T790M (Homo sapiens, UniProt P00533, L858R/T790M); test: Michaelis-Menten kinetics (KM,ATP, KM,pept); type: biochemical; details: read-out: Best fit KM,ATP; individual experiments (Fig. 3b data)
T7 construct: 6x His (N); made in house; host or cells: Spodoptera frugiperda Sf9 (baculovirus)
Experimental: as §1, §2

EGFR TKD L858R = target: T8, EGFR TKD L858R (Homo sapiens, UniProt P00533, L858R); test: Michaelis-Menten kinetics (KM,ATP, KM,pept); type: biochemical
T8 construct: 6x His (N); made in house; host or cells: Spodoptera frugiperda Sf9 (baculovirus)

wild type EGFR TKD = target: T9, wild type EGFR TKD (Homo sapiens, UniProt P00533); test: Michaelis-Menten kinetics (KM,ATP, KM,pept); type: biochemical
T9 construct: hexa-histidine (6x His) (N); made in house; host or cells: Spodoptera frugiperda Sf9 (baculovirus, pFastBac1)

EGFR TKD ΔL747-P753InsS = target: T10, EGFR TKD ΔL747-P753InsS (Homo sapiens, UniProt P00533, DEL747-752/P753S); test: Michaelis-Menten kinetics (KM,ATP, KM,pept); type: biochemical
T10 construct: 6x His (N); made in house; host or cells: Spodoptera frugiperda Sf9 (baculovirus)

[1] = read-out: Best fit KM,ATP, individual experiments (Fig. 3b data)
[2] = read-out: KM, ATP, 20 μM peptide, mean ± SD

Km (EGFR TKD ΔE746-T751InsA; [1]): 216 µM and 285 µM and 228 µM and 263 µM and 287 µM and 318 µM
Km (EGFR TKD ΔE746-T751InsA; [2]): 240 ± 59 µM
Km (EGFR TKD ΔL747-A750InsP; [1]): 23.6 µM and 15.4 µM and 18.7 µM and 31.1 µM and 32.5 µM and 29.2 µM and 22.7 µM and 20.1 µM and 16.8 µM
Km (EGFR TKD ΔL747-A750InsP; [2]): 23 ± 6 µM
Km (EGFR TKD ΔL747-E749; [1]): 10.3 µM and 8.84 µM and 8.25 µM and 18.4 µM and 22.3 µM and 26.3 µM and 7.28 µM and 5.87 µM and 5.78 µM
Km (EGFR TKD ΔL747-E749; [2]): 13 ± 8 µM
Km (EGFR TKD ΔE746-A750): 194 µM and 149 µM and 116 µM and 126 µM
Km (EGFR TKD ΔS752-I759; [2]): 91 ± 25 µM
KM, ATP for L747P smaller than for ΔE746-A750 (EGFR TKD L747P): 7.5 fold
Km (EGFR TKD L747P; [1]): 16.8 µM and 14.6 µM and 12.5 µM and 19.3 µM and 21.2 µM and 21.7 µM and 28.8 µM and 29.4 µM and 26 µM
Km (EGFR TKD L747P; [2]): 21 ± 6 µM
Km (EGFR TKD ΔL747-T751InsP): 93.5 µM and 183 µM and 100 µM and 217 µM and 135 µM and 204 µM and 224 µM
Km (EGFR TKD L858R/T790M): 48 µM and 47.5 µM and 38.9 µM and 35.3 µM and 47.4 µM and 56.3 µM and 50.7 µM
Km (EGFR TKD L858R; [1]): 89.3 µM and 87.4 µM and 87.6 µM and 63.1 µM and 77.3 µM and 74.5 µM and 60.1 µM and 51.1 µM
Km (EGFR TKD L858R; [2]): 74 ± 14 µM
Km (wild type EGFR TKD; [1]): 9.32 µM and 7.22 µM and 7.98 µM and 15.8 µM and 15.6 µM and 15 µM and 12.6 µM and 10.1 µM
Km (wild type EGFR TKD; [2]): 12 ± 3 µM
Km (EGFR TKD ΔL747-P753InsS; [1]): 115 µM and 93.7 µM and 90.2 µM and 86 µM and 70.3 µM and 87.6 µM and 138 µM and 132 µM and 99.9 µM
Km (EGFR TKD ΔL747-P753InsS; [2]): 101 ± 22 µM
Structure (SMILES): Nc1ncnc2c1ncn2[C@@H]1O[C@H](COP(=O)(O)OP(=O)(O)OP(=O)(O)O)[C@@H](O)[C@H]1O [ATP]
Km (EGFR TKD ΔS752-I759; [1]): 124 µM (2×) and 122 µM and 82.8 µM (2×) and 79.2 µM and 65.9 µM and 75.6 µM and 64.3 µM
